Tests used:
[1] = Stability of clindamycin hydrochloride mixed with BP-CB or BPO, stored in vials at 30° C., HPLC peak area; type: physicochemical; conditions: after 216 h at 30° C.
Experimental: The stability of the benzoyl peroxide (BP-CB) formulation of the present invention is compared with benzoyl peroxide (BPO) in non-invention drug formulations. In one study, clindamycin hydrochloride is used as the API. Clindamycin hydrochloride and BP-CB or BPO are placed in vials and stored at 30° C. The vials are analyzed by HPLC and the area from the clindamycin hydrochloride peak is monitored. […] These values are in comparison to the area from the T0 results. BPO Study—Into clear one dram vials is placed hydrous benzoyl peroxide (26 mg, 75.0% by wt) and clindamycin hydrochloride (20 mg). The contents are mixed thoroughly. Then the vials are stored at 30° C. BP-CB Study—Into clear one dram vials is placed BP-CB (30 mg, 65% BPO by wt) and clindamycin hydrochloride (20 mg). The contents are mixed thoroughly then the vials are stored at 30° C. Analysis—At certain time points, the vials are analyzed by HPLC. Prior to analysis, a mixture of methanol and acetonitrile (10 mL total, 1:1 by volume) is added to dissolve the contents of the vial. The solution is used for HPLC analysis. For T0, a vial is removed and analyzed before the samples are heated to 30° C. • To prepare 1 L solution, transfer 1000 mL DI water into a suitable reservoir. Add 6.81 g of KH2PO4, and then adjust pH to 3.1 with H3PO4. Mix well. Degas solution thoroughly before use. [table]

[2] = Stability of tazarotene with BP-CB or BPO in polyacrylic acid gel, stored at 30° C., HPLC peak area; type: physicochemical; conditions: after 834 h at 30° C.; with tazarotene in polyacrylic acid (PAA) gel
Experimental: These stability studies are set up to examine BP-CB/BPO with various APIs in aqueous gel formulations. In one study, tazarotene is used as the API. Tazarotene and BP-CB or BPO are placed into a polyacrylic acid (PAA) gel in vials and stored at 30° C. The vials are analyzed by HPLC and the area from the tazarotene peak is monitored. […] These values are compared on the area from the To results.
BPO Study—Polyacrylic acid gel is prepared by stirring polyacrylic acid (2.5 g) in deionized water (100 mL) at 50° C. for 2 h. The gel is allowed to cool to ambient temperature. The gel (500 mg) is weighed out into each of the 4-dram vials. Into the same vials is placed hydrous benzoyl peroxide (390 mg, 74.6% by wt) and tazarotene (375 mg). The contents are mixed thoroughly then the vials are stored at 30° C.
BP-CB Study—Polyacrylic acid gel is prepared by stirring polyacrylic acid (2.5 g) in deionized water (100 mL) at 50° C. for 2 h. The gel is allowed to cool to ambient temperature. The gel (500 mg) is weighed out into each of the 4-dram vials. Into the same vials is placed BP-CB (447 mg, 65% BPO by wt) and tazarotene (375 mg). The contents are mixed thoroughly then the vials are stored at 30° C.
Analysis—At certain time points, the vials are analyzed by HPLC. […] For To, a vial is removed and analyzed before the samples are heated to 30° C. […]

[3] = cited from earlier work

| SMILES | decrease of HPLC area of the clindamycin hydrochloride peak in comparison to T0 [1] | decrease of HPLC area of the tazarotene peak compared to T0 [2] | pKa [3] |
| --- | --- | --- | --- |
| O=C(OOC(=O)c1ccccc1)c1ccccc1 [BPO, benzoyl peroxide] | 87.0% | 88% | – |
| CC1=C(/C=C/C(C)=C/C=C/C(C)=C/C(=O)O)C(C)(C)CCC1 [tretinoin] | – | – | 3.8 |
